Holding throughout (assay type): physicochemical
The nature of series [1]: Aggregate formation: ratio of absorption maxima of monomer and aggregate at increasing salt concentration. The conditions noted are these: for characteristics with respect to aggregate formation: with increasing salt concentration. From the text:
The intensity of the absorption in the absorption maximum of the monomer is a relative measure for the concentration of the monomer in the solution, the same also applies to the concentration of the aggregate, this can be correlated to the intensity of the absorption in the absorption maximum of the aggregate, which is shifted hypsochronically compared to the monomer. […] The increasing salt concentration causes an aggregate formation.

Series [2] in a line: Extinction coefficient determined assuming Beer's law. The conditions noted are these: Beer's law assumed. The method, then:
Determination of the Extinction Coefficient The extinction coefficient was determined assuming that Beer's law applies.

A short description of series [3]: Relative quantum yield of dye-protein conjugates, determined relative to Cy5. Conditions: protein conjugates at similar molar dye/protein ratios, protein HSA. The method, then: The protein used was HSA (Human Serum Albumin).
Determination of the Quantum Yield
The quantum yield was determined relative to Cy5
For labeling, the crude product (1 aliquot) is dissolved in 1 ml of DMF. 50 μl of this solution are pipetted to 1.5 mL (=1 mg) of anti-HSA solution in carbonate buffer pH 9.2. The reaction solution is stirred at RT under the exclusion of light for 2 hours.
Using gel permeation chromatography over a Sephadex G25 column, the conjugate is then separated from unbound dye. The elution buffer used is PBS, pH 7.4.
Protein conjugates of other dyes, which are listed in Table 1, were prepared in an analogous manner.

Series [4] can be described thus: Photostability: dye solutions exposed to daylight, reduction of absorption over time. Conditions: after 30 min, starting absorption 1.4 to 1.6 O.D. On the procedure:
The photostability was determined by exposing dye solutions to daylight. The absorption of the solutions varied between 1.4 and 1.6 O.D. The reduction of the absorption over time is a measure for the photostability of the dyes. These conditions were chosen since the handling of the dyes, too, includes manual process steps during which the dyes are exposed to daylight. In the case of CY5, it is clearly noticeable that, even after 30 min, the absorption has decreased by 12%. This is not the case for the dyes according to the invention, and the latter are thus also more user-friendly, by maintaining a stable absorption.

Marks after values point to notes of the source that are not given here.

Take `CC1(C)C(/C=C2\C(=O)C(/C=C3/N(CCCCCC(=O)O)c4ccc(S(=O)(=O)[O-])cc4C3(C)C)=C2O)=[N+](CC(=O)NS(C)(=O)=O)c2ccc(S(=O)(=O)O)cc21` [J]: the results for the Absorption monomer/absorption dimer in series [1] (2.0 M NaCl), in series [1] (3.8 M NaCl) and in series [1] (Water) were 4.35, 4.40 and 4.40, respectively. In series [1] (in words, from Table 2), the “aggregate formation compared to CY5” value is “considerably lower aggregate formation”. In series [1] (in words), the “characteristics with respect to aggregate formation” value was “stable characteristics”. In addition, the Extinction coefficient in series [2] was 240 000 mol-1*cm^2*. The “rel. Q.Y.” value in series [3] was found to be 1.36.
`CC1(C)C(/C=C2\C(=O)C(/C=C3/N(CCCCCC(=O)O)c4ccccc4C3(C)C)=C2O)=[N+](CC(=O)NS(C)(=O)=O)c2ccc(S(=O)(=O)[O-])cc21` [F]: the Absorption monomer/absorption dimer in series [1] (2.0 M NaCl) was determined as 2.81; in series [1] (3.8 M NaCl) it was 2.81; in series [1] (Water), 2.89. For the same compound, in series [1] (in words), the “characteristics with respect to aggregate formation” value is given as “stable characteristics”. Moreover, the Extinction coefficient in series [2] is 420 000 mol-1*cm^2*. Further, the “rel. Q.Y.” value in series [3] stood at 1.35.
For the compound `CCN1/C(=C/C=C/C=C/C2=[N+](CCCCCC(=O)O)c3ccc(S(=O)(=O)O)cc3C2(C)C)C(C)(C)c2cc(S(=O)(=O)[O-])ccc21` [CY5, reference compound], the Absorption monomer/absorption dimer is given as 3.18 in series [1] (2.0 M NaCl), 3.19 in series [1] (3.8 M NaCl) and 3.12 in series [1] (Water). In series [4], this compound returned a decrease of absorption of 12%.

Source of the values: patent US6995262B1, “Use of acylsulfonamido-substituted polymethine dyes as fluorescene dyes and/or markers” (Bayer CropScience AG, priority 1999, dated 2006).
